Target: T1, human GluR4B receptor (Homo sapiens, UniProt P48058)
T1 construct: expressed in transfected cells
Experiment: potentiation of agonist-induced excitability of human GluR4B receptor expressed in HEK 293 cells (Fluo-3 calcium fluorescence)
Format: cell-based
Settings: human GluR4B expressed in HEK 293 cells
From the text: The ability of compounds of formula I to potentiate glutamate receptor-mediated response may be determined using fluorescent calcium indicator dyes (Molecular Probes, Eugene, Oreg., Fluo-3) and by measuring glutamate-evoked efflux of calcium into GluR4 transfected HEK293 cells, as described in more detail below.
In one test, 96 well plates containing confluent monolayers of HEK cells stably expressing human GluR4B (obtained as described in European Patent Application Publication Number EP-A1-583917) are prepared. The tissue culture medium in the wells is then discarded, and the wells are each washed once with 200 μl of buffer (glucose, 10 mM, sodium chloride, 138 mM, magnesium chloride, 1 mM, potassium chloride, 5 mM, calcium chloride, 5 mM, N-[2-hydroxyethyl]-piperazine-N-[2-ethanesulfonic acid], 10 mM, to pH 7.1 to 7.3). […]
Each test is then performed as follows. […] A second fluorescent reading is taken after 5 minutes incubation. 15 μl of 400 μM glutamate solution is then added to each well (final glutamate concentration […]), and a third reading is taken. The activities of test compounds and cyclothiazide solutions are determined by subtracting the second from the third reading (fluorescence due to addition of glutamate in the presence or absence of test compound or cyclothiazide) and are expressed relative to enhance fluorescence produced by 100 μM cyclothiazide.

T1 sequence (P48058 21-902): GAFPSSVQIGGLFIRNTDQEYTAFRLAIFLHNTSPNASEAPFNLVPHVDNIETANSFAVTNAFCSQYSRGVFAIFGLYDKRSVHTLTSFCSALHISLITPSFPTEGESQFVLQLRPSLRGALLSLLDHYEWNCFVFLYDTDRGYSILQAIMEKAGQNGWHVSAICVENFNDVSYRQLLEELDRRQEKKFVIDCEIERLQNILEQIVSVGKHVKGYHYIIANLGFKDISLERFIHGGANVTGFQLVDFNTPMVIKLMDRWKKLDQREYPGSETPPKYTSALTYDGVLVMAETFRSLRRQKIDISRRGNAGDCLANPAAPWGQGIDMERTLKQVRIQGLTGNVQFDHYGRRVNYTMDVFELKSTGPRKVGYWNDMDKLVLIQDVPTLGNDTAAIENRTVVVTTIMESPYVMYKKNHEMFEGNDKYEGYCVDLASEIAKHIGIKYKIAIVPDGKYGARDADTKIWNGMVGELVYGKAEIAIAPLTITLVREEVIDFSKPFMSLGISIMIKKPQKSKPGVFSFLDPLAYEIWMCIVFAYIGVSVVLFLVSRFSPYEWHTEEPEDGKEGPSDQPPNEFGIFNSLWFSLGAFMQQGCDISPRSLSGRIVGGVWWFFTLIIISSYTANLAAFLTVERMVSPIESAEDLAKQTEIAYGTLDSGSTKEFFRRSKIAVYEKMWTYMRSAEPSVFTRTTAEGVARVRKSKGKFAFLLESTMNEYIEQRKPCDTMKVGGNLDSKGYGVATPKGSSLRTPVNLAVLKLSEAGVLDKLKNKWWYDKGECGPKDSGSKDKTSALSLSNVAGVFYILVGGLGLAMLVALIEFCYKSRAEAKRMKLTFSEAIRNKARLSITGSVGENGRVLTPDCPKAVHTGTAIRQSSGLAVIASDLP

NS(=O)(=O)c1cc2c(cc1Cl)NC(C1CC3C=CC1C3)NS2(=O)=O (stereo not shown) [cyclothiazide]
potentiation of agonist-induced excitability of human GluR4B receptor: potentiate
